ChEMBL document CHEMBL1127257, “Ca2+-ATPase inhibitory activity of a locked analogue of thapsigargin” (Bioorg Med Chem Lett, 1994)

Organism: Bos taurus
Assay: Inhibitory effect by measuring the ATP-dependent [Ca2+] uptake in membranes isolated from bovine cerebellum
Type: functional

Row | SMILES | IC50 (Bos taurus, Cerebellum) | IC50
1 | C/C=C(\C)C(=O)O[C@H]1C(C)=C2[C@H]([C@@H]1OC(=O)CCCCCCC)[C@@](C)(OC(C)=O)C[C@H](OC(=O)CCC)[C@@]1(O)[C@H]2OC[C@@]1(C)O | 0.18 nM | 
2 | C/C=C(/C)C(=O)O[C@H]1C(C)=C2[C@H]([C@@H]1OC(=O)CCCCCCC)[C@@](C)(OC(C)=O)C[C@H](OC(=O)CCC)[C@@]1(O)[C@H]2OC(=O)[C@@]1(C)O [THAPSIGARGIN] |  | 0.17 nM
3 | CC=C(C)C(=O)O[C@H]1C(C)=C2[C@H]([C@@H]1OC(=O)CCCCCCC)[C@@](C)(OC(C)=O)C[C@H](OC(=O)CCC)[C@@]1(O)[C@H]2OC(=O)[C@@]1(C)O [THAPSIGARGIN] | 0.264 nM | 
